Values quoted from earlier work as cited in patent US8512522B2, “Method of producing paper with methane reduction ingredients” (priority 2011, dated 2013).
Like-named read-outs stand apart in the source and are kept apart here.

Assays:
[1] = test system: Anaerobic digested sludge + activated sludge
Anaerobic digester = details: methane inhibition
Marine sediments = details: methane inhibition
Sewage sludge = details: methane inhibition
Anaerobic medium = details: methane inhibition

Compound | Suppressive Concentration (Anaerobic digester) | further results
O=S(=O)(O)CCBr [2-Bromoethane sulfonic acid] | – | Suppressive Concentration ([1]; completely inhibited, Parameswaran et al., 2009): 50 mM; Suppressive Concentration ([1]; potently inhibited, Chae et al., 2010): 0.1 to 0.27 mM
[Ca+2] [Calcium] | >2,500 mg/L | –
[Cu+2] [Copper (Cu2+)] | 10 to 250 mg/L | –
C=C [Ethylene] | – | Suppressive Concentration (Marine sediments): >5% v/v
[Fe+3] [Ferric iron (Fe3+)] | – | Suppressive Concentration (Sewage sludge): 21 mg/L
[Mg+2] [Magnesium] | >1,000 mg/L | –
[Ni+2] [Nickel (Ni2+)] | – | Suppressive Concentration (Anaerobic medium): 2.5 mM
[K+] [Potassium] | >2,500 mg/L | –
[Zn+2] [Zinc (Zn2+)] | 10 to 250 mg/L | –
Sodium | >3,500 mg/L | –
